# According to patent publication US5132401A (George Washington University, Office of Sponsored Research, priority 1989, dated 1992):
# Tested on: anterior pituitary cells
# Assay: PRL assay: in vitro prolactin release from normal anterior pituitary cells, RIA
# Type: cell-based, Sprague-Dawley rats
# Settings: maximum stimulatory concentration of TRH (100 nM); FIG. 12
# Protocol: Inhibitory neurohormones and drugs were added during the final 20 minutes of the second rinse. […] After incubations, the medium is quickly removed and saved for radioimmunoassay (RIA).
# PRL and GH were determined by standard RIA techniques (media diluted 1:30, 25-70 μl samples) using materials and protocols supplied by the NIDDK Rat Pituitary Hormone Distribution Program. Inter- and intra-assay variations for PRL and GH were less than 8% to 10%, respectively. All samples were assayed in duplicate, with results expressed in terms of NIDDK standards (rat PRL RP-2 and rat GH RP-1).
compound,measurement,value
"NC(=O)[C@@H]1CCCN1C(=O)[C@H](Cc1cnc[nH]1)NC(=O)[C@@H]1CCC(=O)N1 [TRH, thyrotropin releasing hormone]",increase in PRL release compared to the control value,480%
